Conditions: Liquid, light scattering

CCCCCC(=O)OCC [ethyl hexanoate]
Conditions	speed of sound [m/s]
291.92 K, 7170 kPa	1273.2
292.04 K, 8640 kPa	1284
292.14 K, 10010 kPa	1290.3
293.41 K, 5690 kPa	1255
293.44 K, 4180 kPa	1247.7
294.64 K, 100 kPa	1224.2
294.64 K, 1100 kPa	1230.1
294.84 K, 2620 kPa	1239
301.5 K, 2670 kPa	1205.7
301.55 K, 1070 kPa	1195.5
301.56 K, 4130 kPa	1214.4
301.58 K, 7090 kPa	1236.9
301.6 K, 5650 kPa	1225.7
301.63 K, 8670 kPa	1245.9
301.73 K, 10030 kPa	1258.6
302.55 K, 100 kPa	1189.8
313.14 K, 9980 kPa	1220.5
313.24 K, 4030 kPa	1185
313.24 K, 8510 kPa	1215.6
313.25 K, 7000 kPa	1205.4
313.26 K, 5550 kPa	1196.2
313.28 K, 2510 kPa	1175.2
313.3 K, 100 kPa	1155.3
313.3 K, 1020 kPa	1160.8
323.18 K, 10000 kPa	1187.7
323.28 K, 8470 kPa	1179.1
323.31 K, 2480 kPa	1142.4
323.31 K, 4010 kPa	1149.9
323.33 K, 6950 kPa	1170
323.35 K, 5480 kPa	1162
323.36 K, 100 kPa	1120.8
323.36 K, 1020 kPa	1128.5
332.94 K, 8560 kPa	1145.7
332.97 K, 6950 kPa	1135.6
332.97 K, 10050 kPa	1156.4
332.99 K, 100 kPa	1086.3
332.99 K, 1060 kPa	1090.1
333.01 K, 2560 kPa	1105.9
333.04 K, 5580 kPa	1125.1
333.07 K, 4030 kPa	1115.9
342.65 K, 2510 kPa	1072.2
342.67 K, 100 kPa	1051.7
342.67 K, 1000 kPa	1054.8
342.69 K, 3940 kPa	1082.2
342.71 K, 5500 kPa	1094.5
342.72 K, 8500 kPa	1109.7
342.74 K, 7030 kPa	1099.1
342.82 K, 9990 kPa	1124.8
352.33 K, 100 kPa	1017.1
352.33 K, 1100 kPa	1023
352.33 K, 2540 kPa	1038.4
352.35 K, 4000 kPa	1050.4
352.41 K, 5530 kPa	1061
352.42 K, 7020 kPa	1068.2
352.43 K, 8490 kPa	1080.4
352.73 K, 10060 kPa	1093.6
362.56 K, 100 kPa	982.46
362.56 K, 1000 kPa	987.04
362.56 K, 4010 kPa	1015.1
362.58 K, 8530 kPa	1045.7
362.6 K, 7060 kPa	1033.4
362.62 K, 5540 kPa	1026
362.64 K, 2530 kPa	1000.9
362.68 K, 10100 kPa	1061.2
372.53 K, 2500 kPa	968.37
372.54 K, 100 kPa	947.78
372.54 K, 1040 kPa	952.55
372.55 K, 7020 kPa	1007.7
372.56 K, 8530 kPa	1016.3
372.57 K, 5560 kPa	998.43
372.59 K, 4050 kPa	985.39
372.86 K, 9900 kPa	1029.5
382.71 K, 8540 kPa	980
382.73 K, 7020 kPa	971.25
382.74 K, 100 kPa	913.07
382.74 K, 1000 kPa	922.72
382.74 K, 5540 kPa	962.72
382.75 K, 4010 kPa	952.21
382.76 K, 2560 kPa	934.6
382.91 K, 9900 kPa	997.44
392.4 K, 5520 kPa	933.47
392.41 K, 7010 kPa	940.67
392.42 K, 8480 kPa	949.6
392.47 K, 100 kPa	878.33
392.47 K, 1030 kPa	884.09
392.47 K, 4000 kPa	919.08
392.51 K, 2490 kPa	902.62
392.92 K, 9950 kPa	966.97
402 K, 6970 kPa	908.77
402.03 K, 100 kPa	843.55
402.03 K, 1040 kPa	854.91
402.06 K, 2470 kPa	868.02
402.06 K, 4030 kPa	883.34
402.08 K, 8510 kPa	919.03
402.1 K, 5510 kPa	899.47
402.68 K, 10070 kPa	936.79
412.72 K, 100 kPa	808.74
412.72 K, 1040 kPa	815.66
412.8 K, 2570 kPa	833.03
412.88 K, 5600 kPa	865.88
412.88 K, 7020 kPa	871.35
412.89 K, 8470 kPa	886.33
412.91 K, 4020 kPa	848.61
412.99 K, 10030 kPa	903.23
423.69 K, 9950 kPa	868.97
423.99 K, 8470 kPa	850.59
424.01 K, 6980 kPa	840.66
424.04 K, 5530 kPa	826.28
424.11 K, 2540 kPa	796.64
424.11 K, 4010 kPa	811.39
424.14 K, 100 kPa	773.9
424.14 K, 1010 kPa	774.99
432.74 K, 8510 kPa	826.01
432.77 K, 7030 kPa	813.37
432.78 K, 5380 kPa	798.35
432.84 K, 9890 kPa	842.12
432.92 K, 3990 kPa	780.75
433.17 K, 100 kPa	739.02
433.17 K, 1030 kPa	746.97
433.17 K, 2510 kPa	762.64
442.85 K, 5610 kPa	765.41
442.88 K, 4100 kPa	748.87
442.9 K, 930 kPa	715.97
442.9 K, 2480 kPa	729.4
442.91 K, 6990 kPa	777.33
442.92 K, 8480 kPa	791.24
452.58 K, 5540 kPa	735.89
452.61 K, 7110 kPa	747.91
452.63 K, 8380 kPa	764.36
452.65 K, 4080 kPa	717.86
452.91 K, 2540 kPa	695.59
452.92 K, 1040 kPa	677.79
452.93 K, 10000 kPa	781.61
462.7 K, 7080 kPa	715.1
462.71 K, 4130 kPa	682.75
462.71 K, 8400 kPa	730.25
462.72 K, 5530 kPa	700.28
462.73 K, 2510 kPa	660.98
462.91 K, 10060 kPa	751.22
462.97 K, 960 kPa	644.49
471.93 K, 7050 kPa	686.17
471.94 K, 5520 kPa	670.94
471.95 K, 8260 kPa	703.27
472.03 K, 3960 kPa	653.08
472.05 K, 10050 kPa	723.5
472.29 K, 2600 kPa	630.72
472.41 K, 950 kPa	612.74

Conditions	speed of sound [m/s]
294.37 K	1220.1
301.55 K	1191
313.34 K	1152.7
324.26 K	1115.1
333.16 K	1077.6
343.2 K	1046.1
353.08 K	1010
363.12 K	975
373.14 K	942
383.76 K	905.4
393.3 K	870.1
402.64 K	834.9
413.59 K	800.8
423.96 K	764
433.99 K	730.3
443.55 K	697.6
452.9 K	661
463.1 K	628.8
473.82 K	592.4
